# According to article PMC10287695, “Non-covalent inhibitors of thioredoxin glutathione reductase with schistosomicidal activity in vivo” (Nature Communications, 2023):
# “And” between values parts separate entries of the source, which are not always exact repeats. Equal values may be shown once. Read-outs that look alike come from different tables or passages of the source.
# Columns and labels:
# [1] = molecular target: T1, Human TrxR1 (Homo sapiens, UniProt Q16881); assay: Human TrxR1 enzyme inhibition (DTNB reduction); type: biochemical; details: for inhibition at 15 µM: compound 15 µM; for inhibition at 30 µM: compound 30 µM
# T1 construct: made in house
# T1 sequence (Q16881 1-499 isoform Q16881-5): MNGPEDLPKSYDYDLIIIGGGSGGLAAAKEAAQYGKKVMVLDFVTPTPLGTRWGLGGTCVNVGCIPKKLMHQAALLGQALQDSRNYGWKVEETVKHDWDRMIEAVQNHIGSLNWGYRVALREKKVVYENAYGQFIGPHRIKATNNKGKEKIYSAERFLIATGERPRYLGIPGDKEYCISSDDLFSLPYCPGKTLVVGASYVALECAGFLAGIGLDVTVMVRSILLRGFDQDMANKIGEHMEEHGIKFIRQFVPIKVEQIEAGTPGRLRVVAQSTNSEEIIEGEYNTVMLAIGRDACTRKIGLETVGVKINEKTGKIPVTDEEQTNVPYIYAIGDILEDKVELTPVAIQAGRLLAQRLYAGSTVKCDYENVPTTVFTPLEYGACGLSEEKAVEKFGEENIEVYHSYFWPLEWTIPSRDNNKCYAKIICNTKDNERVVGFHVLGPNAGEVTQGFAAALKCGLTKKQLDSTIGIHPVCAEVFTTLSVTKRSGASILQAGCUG
# Procedure: Recombinant TGR, human TrxR1, B. malayi (Bm)TrxR and human GR proteins were expressed and purified as described[20],[69],[79]. The codon optimized sequence for P. falciparum (PfTrxR, https://www.ncbi.nlm.nih.gov/protein/CAA60574.1/) with an N-terminal 6-His tag was synthesized and inserted into pET15b (GenScript) and expressed in BL21 (DE3) cells and purified as described for human GR[20]. TGR and TrxR enzyme inhibition assays were performed in triplicate at 25 °C as described[20] in 0.1 M potassium phosphate (pH 7.4), 10 mM EDTA, 100 µM NADPH and 0.01% Tween-20. […] The reaction was started with addition of an equal volume of DTNB (6 mM) and NADPH (100 µM) and the increase in A412 during the first 3 min was recorded. […] The reaction was preincubated for 15 min. Activity was initiated with the addition of 1 mM GSSG and 100 μM NADPH and initial rates of NADPH oxidation were monitored at 340 nm. The reactions were done in triplicate. The IC50 was calculated in GraphPad Prism.
# [2] = test system: S. mansoni adult worms; assay: GSH/GSSG ratio in ex vivo adult worms; type: cell-based; details: for Decrease (%) in GSH/GSSG ratio: adult worms, 3 h exposure to compounds at 50 μM
# Procedure: We assessed GSH/GSSG levels experimentally by treating S. mansoni adult worms with 50 µM of compounds, or respective controls 5 µM Auranofin, 50 µM PZQ or 50 µM MZM and 0.01% DMSO for 3 h. Worm homogenate was prepared by washing three times with PBS to remove residual compounds and ten volumes of ice cold 5% sulfosalicylic acid was added. Worms were manually homogenized on ice using VWR Pellet Mixer Adaptor. The worm suspension was centrifuged at 14000 × g, 4 °C for 10 min and the acid supernatants transferred. An equal volume of ice-cold neutralization buffer (500 mM HEPES, pH 8.0) was added to the acid supernatants.
# GSH/GSSG assay was performed by diluting the acid supernatant (5-fold) with ice-cold dilution buffer (250 mM HEPES, pH 7.5). Using white opaque luminescence plate on ice, 25 µl of the diluted worm acid supernatant was added each well in triplicates. Total glutathione lysis reagent and GSSG lysis reagent, which contains alkylating agent N-ethylmaleimide (25 mM) were prepared following manufactures protocol and added to respective wells along with blank for background. Total glutathione lysis reagent or oxidized glutathione lysis reagent (25 µl) was added to respective wells containing worm acid supernatants and the plate was shaken for 5 min. Luciferin generation reagent (LGR) (50 µl) was added to all wells, briefly shaken and incubated at room temperature for 30 min. Luciferin detection reagent (LDR) (100 µl) was added to all wells, briefly shaken and incubated for 15 min at room temperature and the luminescence measured using microplate imager (BioTek Cytation3). GSH/GSSH ratio for DMSO control and compounds were calculated using (Net DMSO total glutathione RFU) – (Net DMSO GSSG RFU)/ (Net DMSO GSSG RFU)/2 and (Net inhibitor total glutathione RFU) – (Net inhibitor GSSG RFU)/ (Net inhibitor GSSG RFU)/2 respectively.
# [3] = molecular target: T2, S. mansoni TGR (Schistosoma mansoni, UniProt Q962Y6); assay: S. mansoni TGR enzyme inhibition (DTNB reduction); type: biochemical; details: for inhibition at 1 µM: compound 1 µM; for inhibition at 5 µM: compound 5 µM; for inhibition at 30 µM: compound 30 µM; for inhibition at 15 µM: compound 15 µM
# T2 construct: made in house
# T2 sequence (Q962Y6 1-598): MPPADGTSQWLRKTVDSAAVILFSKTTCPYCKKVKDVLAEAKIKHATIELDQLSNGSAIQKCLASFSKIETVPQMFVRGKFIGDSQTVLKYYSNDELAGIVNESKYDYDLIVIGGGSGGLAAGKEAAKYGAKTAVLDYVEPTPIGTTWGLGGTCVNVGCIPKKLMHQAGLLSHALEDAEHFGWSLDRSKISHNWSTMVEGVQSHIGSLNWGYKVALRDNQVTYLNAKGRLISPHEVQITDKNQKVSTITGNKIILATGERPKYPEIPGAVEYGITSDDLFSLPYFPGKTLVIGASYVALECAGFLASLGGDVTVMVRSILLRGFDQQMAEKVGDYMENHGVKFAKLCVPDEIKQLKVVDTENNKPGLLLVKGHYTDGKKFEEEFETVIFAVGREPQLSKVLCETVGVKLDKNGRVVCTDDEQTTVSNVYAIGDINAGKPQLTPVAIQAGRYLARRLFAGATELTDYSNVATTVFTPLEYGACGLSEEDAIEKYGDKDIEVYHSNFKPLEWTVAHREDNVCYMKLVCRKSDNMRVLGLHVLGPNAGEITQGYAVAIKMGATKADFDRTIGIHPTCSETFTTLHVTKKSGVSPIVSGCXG
# [4] = 15 min preincubation (enzyme + 100 µM NADPH + compound), read-out: Human TrxR1 IC50
# [5] = hsTrxR, 15 minutes pre-incubation
# [6] = hsTrxR, 15 minutes pre-incubation, compound 66.7 µM, read-out: % inhibition
# [7] = 1 hr, first data set (r117-133), baseline 55.82
# [8] = 1 hr, first data set (r117-133), baseline = 100
# [9] = 3 hr, first data set (r117-133), baseline 55.82
# [10] = 3 hr, first data set (r117-133), baseline = 100
# [11] = 15 min preincubation (enzyme + 100 µM NADPH + compound)
# [12] = 6 h preincubation (enzyme + 100 µM NADPH + compound), read-out: S. mansoni TGR inhibition (%) at 66.7 µM
# [13] = 66.7 µM, 6 h preincubation, read-out: Human TrxR1 IC50 (µM) or inhibition (%) at 66.7 µM: inhibition
# [14] = adult worms ex vivo, 1 hr, relative to 0hr
# [15] = adult worms ex vivo, 3 hr, relative to 0hr
# [16] = 1 hr, third data set (r147-159), 0hr 72.45
# [17] = 1 hr, third data set (r147-159), 0hr = 100
# [18] = 1 hr, third data set, (values given as fraction)
# [19] = 3 hr, third data set (r147-159), 0hr 72.45
# [20] = 3 hr, third data set (r147-159), 0hr = 100
# [21] = 3 hr, third data set, (values given as fraction)
# [22] = TGR, 15 minutes pre-incubation, read-out: % inhibition
# [23] = TGR, 15 minutes pre-incubation, compound 66.7 µM, read-out: % inhibition
# [24] = adult worms ex vivo, 1 hr, relative to 0hr, values given as fraction
# [25] = adult worms ex vivo, 3 hr, relative to 0hr, values given as fraction
# [26] = 6 h preincubation (enzyme + 100 µM NADPH + compound)
SMILES,"IC50 [1, 4]","inhibition at 15 µM [1, 5]","inhibition at 30 µM [1, 5]","inhibition at 66.7 µM [1, 6]",Decrease (%) in GSH/GSSG ratio [2],"IC50 [3, 11]","inhibition at 66.7 µM [1, 13]","% Ratio GSH/GSSG ([2]; adult worms ex vivo, 1 hr)","Reduction (%) in GSH/GSSG ratio [2, 14]","% Ratio GSH/GSSG ([2]; adult worms ex vivo, 3 hr)","Reduction (%) in GSH/GSSG ratio ([2]; 1 hr, third data set)","Ratio GSH/GSSG [2, 16]","% Ratio GSH/GSSG [2, 17]","Reduction (%) in GSH/GSSG ratio [2, 18]","Reduction (%) in GSH/GSSG ratio ([2]; 3 hr, third data set)","Ratio GSH/GSSG [2, 19]","% Ratio GSH/GSSG [2, 20]","Reduction (%) in GSH/GSSG ratio [2, 21]","inhibition at 30 µM [3, 22]","inhibition at 66.7 µM [3, 23]",also measured
Cc1oc(C2CCCCC2)nc1CN[C@@H]1C[C@@H]2C[C@H]([C@H]1C)C2(C)C [Compound 4],> 66.7 µM,14.3%,26.9%,40.2%,60%,> 66.7 µM,,,,,,,,,,,,,,,"IC50 ([1]; 6 h preincubation, read-out: Human TrxR1 IC50 (µM) or inhibition (%) at 66.7 µM: IC50): 19 ± 5.72 µM; Ratio GSH/GSSG [2, 7]: 28.16; % Ratio GSH/GSSG [2, 8]: 50.452%; Ratio GSH/GSSG [2, 9]: 18.95; % Ratio GSH/GSSG [2, 10]: 33.9548%; inhibition at 66.7 µM [3, 12]: 68.6%"
Cc1oc(-c2ccc3ccccc3c2)nc1CNC1CCCCCC1 [Compound 5],> 66.7 µM,,,,56%,,28.5%,47.8314%,20.3307%,26.3574%,,,,,,,,,,,"Reduction (%) in GSH/GSSG ratio [2, 15]: 56.0984%; inhibition at 66.7 µM [3, 12]: 73%"
C#CCN(Cc1nc(-c2ccccc2)oc1C)[C@@H]1C[C@@H]2C[C@H]([C@H]1C)C2(C)C [Compound 6],> 66.7 µM,,1.95%,2.61%,32%,,28.9%,,,,3.259%,70.09,96.7414%,0.0326%,8.6517%,66.18,91.3483%,0.09%,95.8%,96.4%,"inhibition at 1 µM ([3]; TGR, 15 minutes pre-incubation): 26.3%; inhibition at 5 µM ([3]; TGR, 15 minutes pre-incubation): 74.8%; times more potent against TGR than human TrxR1 ([3]; ratio of IC50s): at least 25 fold"
Cc1oc(C2CCCCC2)nc1C(=O)N[C@@H]1C[C@@H]2C[C@H]([C@H]1C)C2(C)C [Compound 7],22.3 ± 2.03 µM,38.1%,63.3%,92.7%,38% and 36.9%,14.6 ± 1.22 µM,,52.5902%,13.6142%,37.7921%,,,,,,,,,88.1%,95.1%,"Reduction (%) in GSH/GSSG ratio [2, 24]: 0.1361%; Reduction (%) in GSH/GSSG ratio [2, 15]: 37.9219%; Reduction (%) in GSH/GSSG ratio [2, 25]: 0.3792%; inhibition at 15 µM [3, 22]: 75.5%"
C[C@@H]1[C@H]2C[C@@H](C[C@H]1NCc1nc3ccccc3n1C1CCCCCC1)C2(C)C [Compound 8],4.9 ± 1.72 µM,,,,20%,10.3 ± 2.01 µM,,52.2584%,14.1592%,52.8952%,13.1896%,62.89,86.8104%,0.13%,20.8885%,57.32,79.1115%,0.21%,62.9%,78.8%,"inhibition at 2.5 µM ([1]; hsTrxR, 15 minutes pre-incubation, compound 2.5 µM): 37.2%; inhibition at 5 µM ([1]; hsTrxR, 15 minutes pre-incubation, compound 5 µM): 49.7%; inhibition at 10 µM ([1]; hsTrxR, 15 minutes pre-incubation, compound 10 µM): 61.6%; Reduction (%) in GSH/GSSG ratio [2, 24]: 0.1416%; Reduction (%) in GSH/GSSG ratio [2, 25]: 0.2338%; inhibition at 15 µM [3, 22]: 57.4%"
CC1C(NCc2cn(C3OCC(O)C(O)C3O)c3ccccc23)CC2CC1C2(C)C (stereo not shown) [Compound 9],70.5 ± 11.4 µM,5.09%,8.68%,14.5%,9%,57.5 ± 2.46 µM,,,,,1.8641%,71.10,98.1359%,0.0186%,10.4658%,64.87,89.5342%,0.10%,49.3%,68.2%,"Ratio GSH/GSSG ([2]; 1 hr, second data set (r136-144), baseline 63.5617, DMSO 63.4928): 62.1962; Ratio GSH/GSSG ([2]; 3 hr, second data set (r136-144), baseline 63.5617, DMSO 203.124): 55.0997; inhibition at 1 µM ([3]; TGR, 15 minutes pre-incubation): 3.4%; inhibition at 5 µM ([3]; TGR, 15 minutes pre-incubation): 11.8%; inhibition at 15 µM [3, 22]: 32.6%"
C[C@@H]1[C@H]2C[C@@H](C[C@H]1NCc1nc3ccccc3n1C)C2(C)C [Compound 12],> 66.7 µM,,,,,,28.6%,59.2209%,1.36%,58.1972%,,,,,,,,,,,"S. mansoni TGR IC50 [3, 11]: n.i.^e; S. mansoni TGR inhibition (%) at 66.7 µM [3, 26]: n.i.^e"
"C[C@@H]1N=C(c2ccccc2Cl)c2cc([N+](=O)[O-])ccc2NC1=O [MZM, meclonazepam, reference compound]",,,,,,,,,,,,,,,,,,,,,"Human TrxR1 IC50 (µM) or inhibition (%) at 66.7 µM: inhibition ([1]; 66.7 µM, 6 h preincubation): n.i.^e; Ratio GSH/GSSG [2, 7]: 55.11; % Ratio GSH/GSSG [2, 8]: 98.7253%; Ratio GSH/GSSG [2, 9]: 55.10; % Ratio GSH/GSSG [2, 10]: 98.7201%; S. mansoni TGR inhibition (%) at 66.7 µM [3, 26]: n.i.^e"
